# Target: KRas (Homo sapiens, UniProt P01116, G12C)
# Assay: KRas degradation in NCI-H2030 cells by Western blot, normalized to GAPDH (data of Table 14)
# Assay type: cell-based
# Design: host or cells: NCI-H2030
# Conditions: for Dmax: NCI-H2030; for Percent Degradation at Indicated Concentration (μM): 0.1: 0.1 μM; for Percent Degradation at Indicated Concentration (μM): H2030
# In short: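 Degradation of endogenous homozygous G12C KRas is measured by immunoblot after serum starvation and compound exposure at three final concentrations (0.3, 1 and 3 μM). VHL-recruiting compounds are incubated 24 h and all others 72 h. Percent loss is calculated from GAPDH-normalized KRas relative to vehicle.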
SMILES,"Percent Degradation at Indicated Concentration (μM): 0.3 (H2030 cells, 0.3 μM)","Percent Degradation at Indicated Concentration (μM): 1 (H2030 cells, 1 μM)","Percent Degradation at Indicated Concentration (μM): 3 (H2030 cells, 3 μM)",Dmax (H2030 cells),Percent Degradation at Indicated Concentration (μM): 0.1 (H2030 cells),Percent Degradation at Indicated Concentration (μM) (0.3 μM),Percent Degradation at Indicated Concentration (μM) (1 μM),Percent Degradation at Indicated Concentration (μM) (3 μM),Dmax
"C=CC(=O)N1CCN(c2nc(NCCC(=O)N(C)CCOCCOCCOCCNc3cccc4c3C(=O)N(C3CCC(=O)NC3=O)C4=O)nc3c(F)c(-c4cc(O)cc5ccccc45)c(Cl)cc23)CC1 (stereo not drawn) [compound 58, 3-((4-(4-acryloylpiperazin-1-yl)-6-chloro-8-fluoro-7-(3-hydroxynaphthalen-1-yl)quinazolin-2-yl)amino)-N-(2-(2-(2-(2-((2-(2,6-dioxopiperidin-3-yl)-1,3-dioxoisoindolin-4-yl)amino)ethoxy)ethoxy)ethoxy)ethyl)-N-methylpropanamide]",C (C ≤ 35),C (C ≤ 35),C (C ≤ 35),≤ 35%,,,,,
"C=CC(=O)N1CCN(c2nc(NCCC(=O)N(C)CCOCCOCCOCCOCCNc3cccc4c3C(=O)N(C3CCC(=O)NC3=O)C4=O)nc3c(F)c(-c4cc(O)cc5ccccc45)c(Cl)cc23)CC1 (stereo not drawn) [compound 59, 3-((4-(4-acryloylpiperazin-1-yl)-6-chloro-8-fluoro-7-(3-hydroxynaphthalen-1-yl)quinazolin-2-yl)amino)-N-(14-((2-(2,6-dioxopiperidin-3-yl)-1,3-dioxoisoindolin-4-yl)amino)-3,6,9,12-tetraoxatetradecyl)-N-methylpropanamide]",C (C ≤ 35),C (C ≤ 35),,≤ 35%,C (C ≤ 35),,,,
"C=CC(=O)N1CCN(c2nc(NCCC(=O)N(C)CCOCCOc3ccc4c(c3)C(=O)N(C3CCC(=O)NC3=O)C4=O)nc3c(F)c(-c4cc(O)cc5ccccc45)c(Cl)cc23)CC1 (stereo not drawn) [compound 60, 3-((4-(4-acryloylpiperazin-1-yl)-6-chloro-8-fluoro-7-(3-hydroxynaphthalen-1-yl)quinazolin-2-yl)amino)-N-(2-(2-((2-(2,6-dioxopiperidin-3-yl)-1,3-dioxoisoindolin-5-yl)oxy)ethoxy)ethyl)-N-methylpropanamide]",C (C ≤ 35),C (C ≤ 35),C (C ≤ 35),≤ 35%,,,,,
"C=CC(=O)N1CCN(c2nc(NCCC(=O)N(C)CCOCCOCCOc3ccc4c(c3)C(=O)N(C3CCC(=O)NC3=O)C4=O)nc3c(F)c(-c4cc(O)cc5ccccc45)c(Cl)cc23)CC1 (stereo not drawn) [compound 61, 3-((4-(4-acryloylpiperazin-1-yl)-6-chloro-8-fluoro-7-(3-hydroxynaphthalen-1-yl)quinazolin-2-yl)amino)-N-(2-(2-(2-((2-(2,6-dioxopiperidin-3-yl)-1,3-dioxoisoindolin-5-yl)oxy)ethoxy)ethoxy)ethyl)-N-methylpropanamide]",C (C ≤ 35),C (C ≤ 35),,≤ 35%,C (C ≤ 35),,,,
"C=CC(=O)N1CCN(c2nc(NCCC(=O)N(C)CCOCCOCCOCCOc3ccc4c(c3)C(=O)N(C3CCC(=O)NC3=O)C4=O)nc3c(F)c(-c4cc(O)cc5ccccc45)c(Cl)cc23)CC1 (stereo not drawn) [compound 62, 3-((4-(4-acryloylpiperazin-1-yl)-6-chloro-8-fluoro-7-(3-hydroxynaphthalen-1-yl)quinazolin-2-yl)amino)-N-(2-(2-(2-(2-((2-(2,6-dioxopiperidin-3-yl)-1,3-dioxoisoindolin-5-yl)oxy)ethoxy)ethoxy)ethoxy)ethyl)-N-methylpropanamide]",C (C ≤ 35),C (C ≤ 35),C (C ≤ 35),≤ 35%,,,,,
"C=CC(=O)N1CCN(c2nc(NCCC(=O)N(C)CCOCCOCCOCCOCCOc3ccc4c(c3)C(=O)N(C3CCC(=O)NC3=O)C4=O)nc3c(F)c(-c4cc(O)cc5ccccc45)c(Cl)cc23)CC1 (stereo not drawn) [compound 63, 3-((4-(4-acryloylpiperazin-1-yl)-6-chloro-8-fluoro-7-(3-hydroxynaphthalen-1-yl)quinazolin-2-yl)amino)-N-(14-((2-(2,6-dioxopiperidin-3-yl)-1,3-dioxoisoindolin-5-yl)oxy)-3,6,9,12-tetraoxatetradecyl)-N-methylpropanamide]",C (C ≤ 35),C (C ≤ 35),,≤ 35%,C (C ≤ 35),,,,
"C=CC(=O)N1CCN(c2nc(NCCC(=O)N(C)CCOc3ccc4c(c3)CN(C3CCC(=O)NC3=O)C4=O)nc3c(F)c(-c4cc(O)cc5ccccc45)c(Cl)cc23)CC1 (stereo not drawn) [compound 64, 3-((4-(4-acryloylpiperazin-1-yl)-6-chloro-8-fluoro-7-(3-hydroxynaphthalen-1-yl)quinazolin-2-yl)amino)-N-(2-((2-(2,6-dioxopiperidin-3-yl)-1-oxoisoindolin-5-yl)oxy)ethyl)-N-methylpropanamide]",C (C ≤ 35),C (C ≤ 35),C (C ≤ 35),≤ 35%,,,,,
"C=CC(=O)N1CCN(c2nc(NCCC(=O)N(C)CCOCCOc3ccc4c(c3)CN(C3CCC(=O)NC3=O)C4=O)nc3c(F)c(-c4cc(O)cc5ccccc45)c(Cl)cc23)CC1 (stereo not drawn) [compound 65, 3-((4-(4-acryloylpiperazin-1-yl)-6-chloro-8-fluoro-7-(3-hydroxynaphthalen-1-yl)quinazolin-2-yl)amino)-N-(2-(2-((2-(2,6-dioxopiperidin-3-yl)-1-oxoisoindolin-5-yl)oxy)ethoxy)ethyl)-N-methylpropanamide]",C (C ≤ 35),C (C ≤ 35),C (C ≤ 35),≤ 35%,,,,,
"C=CC(=O)N1CCN(c2nc(NCCC(=O)N(C)CCOCCOCCOc3ccc4c(c3)CN(C3CCC(=O)NC3=O)C4=O)nc3c(F)c(-c4cc(O)cc5ccccc45)c(Cl)cc23)CC1 (stereo not drawn) [compound 66, 3-((4-(4-acryloylpiperazin-1-yl)-6-chloro-8-fluoro-7-(3-hydroxynaphthalen-1-yl)quinazolin-2-yl)amino)-N-(2-(2-(2-((2-(2,6-dioxopiperidin-3-yl)-1-oxoisoindolin-5-yl)oxy)ethoxy)ethoxy)ethyl)-N-methylpropanamide]",C (C ≤ 35),C (C ≤ 35),C (C ≤ 35),≤ 35%,,,,,
"C=CC(=O)N1CCN(c2nc(NCCC(=O)N(C)CCOCCOCCOCCOc3ccc4c(c3)CN(C3CCC(=O)NC3=O)C4=O)nc3c(F)c(-c4cc(O)cc5ccccc45)c(Cl)cc23)CC1 (stereo not drawn) [compound 67, 3-((4-(4-acryloylpiperazin-1-yl)-6-chloro-8-fluoro-7-(3-hydroxynaphthalen-1-yl)quinazolin-2-yl)amino)-N-(2-(2-(2-(2-((2-(2,6-dioxopiperidin-3-yl)-1-oxoisoindolin-5-yl)oxy)ethoxy)ethoxy)ethoxy)ethyl)-N-methylpropanamide]",C (C ≤ 35),C (C ≤ 35),C (C ≤ 35),≤ 35%,,,,,
"C=CC(=O)N1CCN(c2nc(NCCC(=O)N(C)CCOCCOCCOCCOCCOc3ccc4c(c3)CN(C3CCC(=O)NC3=O)C4=O)nc3c(F)c(-c4cc(O)cc5ccccc45)c(Cl)cc23)CC1 (stereo not drawn) [compound 68, 3-((4-(4-acryloylpiperazin-1-yl)-6-chloro-8-fluoro-7-(3-hydroxynaphthalen-1-yl)quinazolin-2-yl)amino)-N-(14-((2-(2,6-dioxopiperidin-3-yl)-1-oxoisoindolin-5-yl)oxy)-3,6,9,12-tetraoxatetradecyl)-N-methylpropanamide]",,,,,,C (Percent Degradation: C ≤ 35),C (Percent Degradation: C ≤ 35),C (Percent Degradation: C ≤ 35),≤ 35%
"C=CC(=O)N1CCN(c2nc(NCCC(=O)N(C)CCOCCOc3ccc4c(c3)C(=O)N(C3CCC(=O)NC3=O)C4=O)nc3c(F)c(-c4c(O)cccc4F)c(Cl)cc23)CC1 [compound 69, 3-(((S)-4-(4-acryloylpiperazin-1-yl)-6-chloro-8-fluoro-7-(2-fluoro-6-hydroxyphenyl)quinazolin-2-yl)amino)-N-(2-(2-((2-(2,6-dioxopiperidin-3-yl)-1,3-dioxoisoindolin-5-yl)oxy)ethoxy)ethyl)-N-methylpropanamide]",,,,,,C (Percent Degradation: C ≤ 35),C (Percent Degradation: C ≤ 35),C (Percent Degradation: C ≤ 35),≤ 35%
